The results in this text go back to ChEMBL document CHEMBL1156725, “8-Biarylchromen-4-one inhibitors of the DNA-dependent protein kinase (DNA-PK)” (Bioorg Med Chem Lett, 2008).

Each structure is given as a SMILES string.

The assay concerns the target DNA-dependent protein kinase catalytic subunit (Homo sapiens, UniProt P78527). In words: Inhibition of DNA-dependent protein kinase.

Chain of DNA-dependent protein kinase catalytic subunit (P78527 whole entry): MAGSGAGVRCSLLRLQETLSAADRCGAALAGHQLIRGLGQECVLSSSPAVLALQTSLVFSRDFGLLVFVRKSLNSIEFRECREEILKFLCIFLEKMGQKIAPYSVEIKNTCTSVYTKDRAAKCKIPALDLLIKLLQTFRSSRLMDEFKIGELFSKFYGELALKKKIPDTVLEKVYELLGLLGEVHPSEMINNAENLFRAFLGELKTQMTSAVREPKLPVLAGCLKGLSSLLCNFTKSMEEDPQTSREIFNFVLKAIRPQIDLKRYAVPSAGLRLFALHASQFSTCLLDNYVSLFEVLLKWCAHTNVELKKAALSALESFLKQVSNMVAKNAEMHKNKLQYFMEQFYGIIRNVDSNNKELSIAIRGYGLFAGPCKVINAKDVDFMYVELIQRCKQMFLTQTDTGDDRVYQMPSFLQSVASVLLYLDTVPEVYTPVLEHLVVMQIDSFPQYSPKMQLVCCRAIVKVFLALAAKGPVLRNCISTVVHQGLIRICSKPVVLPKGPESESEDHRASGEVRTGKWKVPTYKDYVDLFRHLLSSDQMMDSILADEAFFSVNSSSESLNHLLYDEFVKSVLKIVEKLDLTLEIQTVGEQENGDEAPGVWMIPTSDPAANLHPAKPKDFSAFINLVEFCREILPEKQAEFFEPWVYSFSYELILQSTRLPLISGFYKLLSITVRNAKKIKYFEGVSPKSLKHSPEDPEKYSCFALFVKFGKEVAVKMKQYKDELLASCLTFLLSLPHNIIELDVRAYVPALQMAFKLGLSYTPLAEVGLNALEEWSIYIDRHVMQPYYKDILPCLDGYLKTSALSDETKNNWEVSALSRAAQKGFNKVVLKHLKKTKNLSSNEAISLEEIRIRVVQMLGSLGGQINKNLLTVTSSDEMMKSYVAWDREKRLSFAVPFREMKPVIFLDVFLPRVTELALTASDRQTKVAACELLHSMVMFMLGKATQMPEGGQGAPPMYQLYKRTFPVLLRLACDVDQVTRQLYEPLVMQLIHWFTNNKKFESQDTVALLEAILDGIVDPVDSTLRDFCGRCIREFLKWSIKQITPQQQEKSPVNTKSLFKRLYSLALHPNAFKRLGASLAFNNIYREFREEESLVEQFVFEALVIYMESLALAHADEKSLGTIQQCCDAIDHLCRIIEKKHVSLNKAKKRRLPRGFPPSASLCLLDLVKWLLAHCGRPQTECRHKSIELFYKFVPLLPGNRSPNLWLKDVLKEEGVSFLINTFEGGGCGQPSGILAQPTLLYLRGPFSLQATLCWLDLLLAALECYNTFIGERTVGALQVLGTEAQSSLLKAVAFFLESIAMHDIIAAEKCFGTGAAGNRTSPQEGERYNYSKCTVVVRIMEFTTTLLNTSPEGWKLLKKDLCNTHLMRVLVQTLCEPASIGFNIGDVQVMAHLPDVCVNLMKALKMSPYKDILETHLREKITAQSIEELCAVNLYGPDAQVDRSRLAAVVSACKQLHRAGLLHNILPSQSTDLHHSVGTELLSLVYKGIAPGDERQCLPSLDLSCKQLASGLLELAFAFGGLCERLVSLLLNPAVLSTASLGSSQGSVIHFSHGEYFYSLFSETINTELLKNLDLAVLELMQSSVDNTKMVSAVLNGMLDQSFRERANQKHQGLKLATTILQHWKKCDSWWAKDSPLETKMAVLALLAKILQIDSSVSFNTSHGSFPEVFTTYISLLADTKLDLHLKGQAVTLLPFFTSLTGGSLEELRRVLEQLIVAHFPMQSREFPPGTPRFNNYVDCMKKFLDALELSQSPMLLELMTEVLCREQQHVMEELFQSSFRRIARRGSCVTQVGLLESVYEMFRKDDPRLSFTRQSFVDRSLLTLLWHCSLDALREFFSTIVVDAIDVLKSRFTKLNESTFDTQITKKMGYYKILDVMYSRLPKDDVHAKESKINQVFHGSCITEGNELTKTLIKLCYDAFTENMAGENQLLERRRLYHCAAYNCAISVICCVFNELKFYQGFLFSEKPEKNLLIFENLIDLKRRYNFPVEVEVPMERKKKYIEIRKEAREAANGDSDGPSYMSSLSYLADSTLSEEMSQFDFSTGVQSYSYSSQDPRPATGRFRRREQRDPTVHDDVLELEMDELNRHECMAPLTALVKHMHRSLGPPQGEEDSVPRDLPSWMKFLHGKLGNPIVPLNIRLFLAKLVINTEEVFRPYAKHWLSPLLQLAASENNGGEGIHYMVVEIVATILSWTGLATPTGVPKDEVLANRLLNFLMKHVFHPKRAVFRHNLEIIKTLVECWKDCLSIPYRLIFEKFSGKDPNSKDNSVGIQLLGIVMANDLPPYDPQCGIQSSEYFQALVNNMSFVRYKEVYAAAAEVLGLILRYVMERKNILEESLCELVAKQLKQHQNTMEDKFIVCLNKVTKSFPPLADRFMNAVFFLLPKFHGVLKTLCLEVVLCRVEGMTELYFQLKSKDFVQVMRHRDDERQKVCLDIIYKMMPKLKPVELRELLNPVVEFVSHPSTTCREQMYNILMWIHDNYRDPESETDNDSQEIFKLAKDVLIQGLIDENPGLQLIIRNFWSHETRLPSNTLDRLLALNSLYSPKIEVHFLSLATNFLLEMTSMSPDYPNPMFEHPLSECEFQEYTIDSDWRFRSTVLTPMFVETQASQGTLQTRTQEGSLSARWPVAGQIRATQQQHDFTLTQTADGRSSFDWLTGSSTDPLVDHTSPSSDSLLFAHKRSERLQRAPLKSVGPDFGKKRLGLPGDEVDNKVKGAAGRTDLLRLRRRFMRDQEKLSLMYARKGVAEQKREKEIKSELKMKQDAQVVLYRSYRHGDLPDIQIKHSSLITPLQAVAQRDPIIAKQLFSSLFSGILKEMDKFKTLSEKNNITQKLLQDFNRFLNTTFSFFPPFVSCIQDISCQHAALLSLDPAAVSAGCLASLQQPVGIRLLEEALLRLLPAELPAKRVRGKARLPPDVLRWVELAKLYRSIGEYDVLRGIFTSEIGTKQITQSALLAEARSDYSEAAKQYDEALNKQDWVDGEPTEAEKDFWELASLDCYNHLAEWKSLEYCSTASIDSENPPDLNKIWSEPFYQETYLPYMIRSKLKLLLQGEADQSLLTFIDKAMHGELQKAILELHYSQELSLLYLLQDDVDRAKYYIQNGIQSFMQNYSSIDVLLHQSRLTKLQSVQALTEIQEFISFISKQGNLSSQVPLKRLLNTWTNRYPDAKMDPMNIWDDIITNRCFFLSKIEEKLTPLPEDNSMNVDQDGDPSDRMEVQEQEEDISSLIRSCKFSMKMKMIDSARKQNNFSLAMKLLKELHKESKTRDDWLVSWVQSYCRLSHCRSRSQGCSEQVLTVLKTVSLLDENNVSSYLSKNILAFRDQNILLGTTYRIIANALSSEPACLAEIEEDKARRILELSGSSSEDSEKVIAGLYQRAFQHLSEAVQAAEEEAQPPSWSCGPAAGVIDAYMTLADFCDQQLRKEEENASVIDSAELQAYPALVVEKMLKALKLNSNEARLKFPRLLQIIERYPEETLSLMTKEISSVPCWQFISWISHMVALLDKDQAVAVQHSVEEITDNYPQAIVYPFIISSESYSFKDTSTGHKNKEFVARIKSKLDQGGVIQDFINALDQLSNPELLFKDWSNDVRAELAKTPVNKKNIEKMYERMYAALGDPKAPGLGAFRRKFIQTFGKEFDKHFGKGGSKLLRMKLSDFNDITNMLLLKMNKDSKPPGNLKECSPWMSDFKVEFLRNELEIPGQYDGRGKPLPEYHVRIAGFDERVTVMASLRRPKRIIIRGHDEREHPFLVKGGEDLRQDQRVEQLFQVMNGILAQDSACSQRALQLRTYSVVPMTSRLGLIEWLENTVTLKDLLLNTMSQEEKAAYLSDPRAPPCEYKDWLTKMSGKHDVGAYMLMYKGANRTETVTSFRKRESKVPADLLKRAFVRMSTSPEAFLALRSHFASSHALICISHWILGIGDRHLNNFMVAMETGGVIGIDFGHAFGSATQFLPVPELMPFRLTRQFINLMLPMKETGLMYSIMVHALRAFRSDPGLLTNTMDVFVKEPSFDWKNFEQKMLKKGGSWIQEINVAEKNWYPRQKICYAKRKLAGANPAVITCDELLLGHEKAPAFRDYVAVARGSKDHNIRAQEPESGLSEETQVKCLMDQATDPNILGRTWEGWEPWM

What is called IC50 is the concentration at which inhibition is half-maximal. Read a low IC50 as greater potency in that assay. In the case of `O=c1cc(N2CCOCC2)oc2c(-c3cccc4c3sc3ccccc34)cccc12`, the 50% inhibitory concentration (IC50) worked out at 12 nM. Next, `O=c1cc(N2CCOCC2)oc2c(-c3cccc(-c4ncccn4)c3)cccc12`: 3050 nM; `O=c1cc(N2CCOCC2)oc2c(-c3cccc(-c4cncnc4)c3)cccc12`: 1570 nM; `O=c1cc(N2CCOCC2)oc2c(-c3cc(-c4ccccc4)cs3)cccc12`: 90 nM. As for `O=c1cc(N2CCOCC2)oc2c(-c3ccc(-c4ccccc4)s3)cccc12`, half-maximal inhibition (IC50) was put at 400 nM. To `O=c1cc(N2CCOCC2)oc2c(-c3ncc(-c4ccccc4)s3)cccc12` belongs 370 nM; to `O=c1cc(N2CCOCC2)oc2c(-c3cccc(-c4ccc(O)cc4)c3)cccc12`, 140 nM; to `N#Cc1ccc(-c2cccc(-c3cccc4c(=O)cc(N5CCOCC5)oc34)c2)cc1`, 1480 nM.

Take `Nc1cc(C(=O)O)cc(-c2cccc(-c3cccc4c(=O)cc(N5CCOCC5)oc34)c2)c1`: the midpoint of inhibition, the IC50, lay at 510 nM. Next, `O=c1cc(N2CCOCC2)oc2c(-c3cccc(-c4ccco4)c3)cccc12`: 380 nM. Next, `O=c1cc(N2CCOCC2)oc2c(-c3cccc(-c4ccoc4)c3)cccc12`: 270 nM; `O=c1cc(N2CCOCC2)oc2c(-c3cccc(-c4ccc(CO)cc4)c3)cccc12`: 1000 nM; `NCc1ccc(-c2cccc(-c3cccc4c(=O)cc(N5CCOCC5)oc34)c2)cc1`: 1900 nM. For the molecule `Cc1cc(-c2cccc(-c3cccc4c(=O)cc(N5CCOCC5)oc34)c2)cs1`, the IC50 was determined as 1130 nM. With `Cc1cscc1-c1cccc(-c2cccc3c(=O)cc(N4CCOCC4)oc23)c1`, the midpoint of inhibition, the IC50, lay at 640 nM. Molecule `COC(=O)c1cc(N)cc(-c2cccc(-c3cccc4c(=O)cc(N5CCOCC5)oc34)c2)c1` registered an IC50 of 260 nM.

For `O=c1cc(N2CCOCC2)oc2c(-c3cccc(-c4ccsc4)c3)cccc12`, the IC50 turned out to be 20 nM. Next, `Cc1ccc(-c2cccc(-c3cccc4c(=O)cc(N5CCOCC5)oc34)c2)s1`: 1070 nM; `Cn1ccnc1-c1cccc(-c2cccc3c(=O)cc(N4CCOCC4)oc23)c1`: 3010 nM; `Cn1cncc1-c1cccc(-c2cccc3c(=O)cc(N4CCOCC4)oc23)c1`: 1230 nM. `O=c1cc(N2CCOCC2)oc2c(-c3cccc(-c4nccs4)c3)cccc12` had an IC50 of 490 nM.

In turn, `O=c1cc(N2CCOCC2)oc2c(-c3cccc(-c4ccncc4)c3)cccc12` had an IC50 of 510 nM. Turning to `O=c1cc(N2CCOCC2)oc2c(-c3cccc(-c4ccccc4)c3)cccc12`, the IC50 is 180 nM. To `COc1ccc(-c2cccc(-c3cccc4c(=O)cc(N5CCOCC5)oc34)c2)cc1` belongs 830 nM. To `O=Cc1ccc(-c2cccc(-c3cccc4c(=O)cc(N5CCOCC5)oc34)c2)cc1` belongs 1100 nM; to `Cc1ccsc1-c1cccc(-c2cccc3c(=O)cc(N4CCOCC4)oc23)c1`, 360 nM. Take `O=c1cc(N2CCOCC2)oc2c(-c3cccc(-c4cccs4)c3)cccc12`: 18 nM corresponded to half-maximal inhibition (IC50). To `O=c1cc(N2CCOCC2)oc2c(-c3cccc(-c4ccccn4)c3)cccc12` belongs 880 nM; to `O=c1cc(N2CCOCC2)oc2c(-c3cccc(-c4cc[nH]c4)c3)cccc12`, 1820 nM; to `O=c1cc(N2CCOCC2)oc2c(-c3ccccc3)cccc12` [LY-294002], 1600 nM.
